Experimental data from ChEMBL document CHEMBL3045198, “Insecticidal Activity and Selective Toxicity of Chloronicotinyl Compounds Having Thiomethyl Groups” (J Pestic Sci, 2000).
In brackets after ≈: the same amount, converted by molar mass.

Columns and labels:
Laodelphax striatellus [1] = test: Insecticidal activity against adult Laodelphax striatella (small brown planthopper) at 0.0005 ug topically applied measured after 3 hr; assay type: functional
Laodelphax striatellus [2] = test: Insecticidal activity against larvae of Laodelphax striatella (small brown planthopper) fed with compound solution dipped rice seedling measured after 5 days by test tube method; assay type: functional; conditions: 120 h
Myzus persicae = test: Insecticidal activity against larvae of Myzus persicae (green peach aphid) infested eggplant petiole treated with compound solution measured after 5 days; assay type: functional; conditions: 120 h
Laodelphax striatellus [3] = test: Insecticidal activity against adult Laodelphax striatella (small brown planthopper) at 0.0005 ug topically applied measured after 24 hr; assay type: functional
[4] = Displacement of [3H]alpha-bungarotoxin from nicotinic acetylcholine receptor in Apis mellifera (honey bee) head membrane
[5] = Acute toxicity in po dosed Mus musculus ICR (mouse) assessed as mortality measured after 14 days; assay type: organism-based; conditions: in vivo
Laodelphax striatellus [6] = test: Insecticidal activity against Laodelphax striatella (small brown planthopper) at 12.5 ppm in presence of piperonyl butoxide; assay type: functional
Laodelphax striatellus [7] = test: Insecticidal activity against Laodelphax striatella (small brown planthopper) at 3.1 ppm in presence of triphenyl phosphate; assay type: functional
Laodelphax striatellus [8] = test: Insecticidal activity against Laodelphax striatella (small brown planthopper) at 3.1 ppm; assay type: functional
Laodelphax striatellus [9] = test: Insecticidal activity against Laodelphax striatella (small brown planthopper) at 12.5 ppm in presence of triphenyl phosphate; assay type: functional
Laodelphax striatellus [10] = test: Insecticidal activity against Laodelphax striatella (small brown planthopper) at 0.0005 ug topically applied measured after 72 hr; assay type: functional
Laodelphax striatellus [11] = test: Insecticidal activity against Laodelphax striatella (small brown planthopper) at 0.0005 ug topically applied measured after 48 hr; assay type: functional
Laodelphax striatellus [12] = test: Insecticidal activity against Laodelphax striatella (small brown planthopper) at 3.1 ppm in presence of piperonyl butoxide; assay type: functional
Laodelphax striatellus [13] = test: Insecticidal activity against Laodelphax striatella (small brown planthopper) at 12.5 ppm; assay type: functional
Laodelphax striatellus [14] = test: Insecticidal activity against Laodelphax striatella (small brown planthopper) at 3.1 ppm in presence of diethyl maleate; assay type: functional
Laodelphax striatellus [15] = test: Insecticidal activity against Laodelphax striatella (small brown planthopper) at 12.5 ppm in presence of diethyl maleate; assay type: functional

Row | SMILES | LC50 (Laodelphax striatellus [2]) [µg/mL] | LC50 (Myzus persicae) [µg/mL] | further results
1 | O=[N+]([O-])/C=C1\NCCN1Cc1ccc(Cl)nc1 | 0.3 (≈ 1.18 µM) | 0.09 (≈ 0.353 µM) | mortality (Laodelphax striatellus [1]): 70%; mortality (Laodelphax striatellus [3]): 100%; IC50 [4]: 0.11 µM; LD50 at 336 h [5]: < 30 mg/kg
2 | C[Si](C)(CSC/C(=C1/NCCN1Cc1ccc(Cl)nc1)[N+](=O)[O-])c1ccccc1 | 0.1 (≈ 0.223 µM) | 0.25 (≈ 0.557 µM) | 
3 | O=C(SC/C(=C1/NCCN1Cc1ccc(Cl)nc1)[N+](=O)[O-])c1ccccc1 | 6.3 (≈ 15.6 µM) | 1.2 (≈ 2.96 µM) | 
4 | CC(SC/C(=C1/NCCN1Cc1ccc(Cl)nc1)[N+](=O)[O-])c1ccc(Cl)cc1 (stereo not drawn) | 1 (≈ 2.28 µM) | 0.2 (≈ 0.455 µM) | 
5 | O=[N+]([O-])/C(CSCc1ccc(Cl)cc1)=C1\NCCN1Cc1ccc(Cl)nc1 | 0.14 (≈ 0.329 µM) | 0.8 (≈ 1.88 µM) | 
6 | O=[N+]([O-])/C(CSCc1ccccc1)=C1\NCCN1Cc1ccc(Cl)nc1 | 0.36 (≈ 0.921 µM) | 0.11 (≈ 0.281 µM) | 
7 | CCOC(=O)CSC/C(=C1/NCCN1Cc1ccc(Cl)nc1)[N+](=O)[O-] | 0.3 (≈ 0.775 µM) | 0.1 (≈ 0.258 µM) | 
8 | O=[N+]([O-])/C(CSc1ccccc1)=C1\NCCN1Cc1ccc(Cl)nc1 | 0.11 (≈ 0.292 µM) | 0.34 (≈ 0.902 µM) | 
9 | O=[N+]([O-])/C(CSCCCF)=C1\NCCN1Cc1ccc(Cl)nc1 | 0.14 (≈ 0.388 µM) | 0.2 (≈ 0.554 µM) | 
10 | CC#CCSC/C(=C1/NCCN1Cc1ccc(Cl)nc1)[N+](=O)[O-] | 0.3 (≈ 0.85 µM) | 0.25 (≈ 0.709 µM) | 
11 | C=C(C)CSC/C(=C1/NCCN1Cc1ccc(Cl)nc1)[N+](=O)[O-] | < 0.05 | 0.15 (≈ 0.423 µM) | 
12 | C#CCSC/C(=C1/NCCN1Cc1ccc(Cl)nc1)[N+](=O)[O-] | < 0.05 | 0.22 (≈ 0.649 µM) | 
13 | C=CCSC/C(=C1/NCCN1Cc1ccc(Cl)nc1)[N+](=O)[O-] | 0.14 (≈ 0.411 µM) | 0.1 (≈ 0.293 µM) | mortality (Laodelphax striatellus [1]): 0%; mortality at 12.5 ppm (Laodelphax striatellus [6]): 100%; mortality at 3.1 ppm (Laodelphax striatellus [7]): 100%; mortality at 3.1 ppm (Laodelphax striatellus [8]): 100%; mortality at 12.5 ppm (Laodelphax striatellus [9]): 100%; mortality (Laodelphax striatellus [3]): 30%; IC50 [4]: 20.4 µM; mortality (Laodelphax striatellus [10]): 100%; mortality (Laodelphax striatellus [11]): 80%; mortality at 3.1 ppm (Laodelphax striatellus [12]): 100%; LD50 at 336 h [5]: > 1000 mg/kg; mortality at 12.5 ppm (Laodelphax striatellus [13]): 100%; mortality at 3.1 ppm (Laodelphax striatellus [14]): 30%; mortality at 12.5 ppm (Laodelphax striatellus [15]): 80%
14 | CC(C)(C)SC/C(=C1/NCCN1Cc1ccc(Cl)nc1)[N+](=O)[O-] | 0.43 (≈ 1.2 µM) | 0.2 (≈ 0.56 µM) | 
15 | CCSC/C(=C1/NCCN1Cc1ccc(Cl)nc1)[N+](=O)[O-] | 0.41 (≈ 1.25 µM) | 0.18 (≈ 0.547 µM) | 
